According to patent US20070225344A1, “Sulfonamide derivatives to treat infection with hepatitis C virus” (priority 2006, published 2007):

Biological target: T1, HCV RdRp NS5B d21BK (BK strain, 1b subtype) (Hepatitis C virus genotype 1b, UniProt P26663)
T1 construct: NS5B from the BK strain (1b subtype) is expressed in E. coli as a protein in which the 21 C-terminal amino acids are replaced; made in house; host or cells: E. coli
Assay: HCV polymerase (NS5B) RNA-dependent RNA polymerase inhibition, 33P-GTP filter assay
Type: biochemical
Settings: in vitro; NS5B BK strain (1b subtype), 24 nM enzyme, 2 h at room temperature; read-out: HCV Polymerase Median IC50
Text: The ability of the compounds of the present invention to inhibit hepatitis C polymerase was established by the following experimental procedure:
NS5B from the BK strain (1b subtype) is expressed in E. coli as a protein in which the 21 C-terminal amino acids are replaced with a short linker and a hexahistidine tag (GSHHHHHH). The purified protein is mixed with radioactive nucleotides and allowed to replicate a heteropolymeric RNA substrate, primed by an endogenous short hairpin, resulting in an approximately 760 nt product. The radioactive product is captured on a filter and quantitated after removal of the unincorporated nucleotides.
(1) Compounds 10 μl at 10 μg/ml in 15% DMSO
Add 20 μl enzyme mix into each well of the assay plate. Incubate compound and enzyme at room temperature for 15 minutes.
(3) Template Mix—Prepare Ahead.
Spin down a tube of RNA (5 μg/tube stored in 75% ethanol and 0.3 M sodium acetate) in a microcentrifuge for 20 min. at 4° C. One tube is enough for 1 to 1½ plates. Remove as much ethanol from the tube as possible by inverting the tube. Be gentle, pellet RNA may not adhere to the tube. Vacuum dry the RNA. Resuspend the RNA by adding 1 ml of DEPC water, close the cap of the tube tightly. To dissolve RNA, incubate RNA solution on ice for ˜60 min. and gently vortex. Spin briefly to ensure all RNA solution is down to the bottom of the tube before opening cap. Gently transfer RNA solution into a 5 ml or larger tube. Add another 3 ml of DEPC water (total 4 ml of volume).
Add the following volumes of reagents.
Add 20 μl template mix per reaction (i.e. 20 ng of POF per reaction or ˜3 nM)
(4) Incubate reaction at room temperature (22-25° C.) for 2 hours.
(5) Stop reaction by adding 50 μl of 170 mM EDTA.
Final concentration of EDTA is 85 mM.
(6) Prewet filters of Millipore Multiscreen filter plate by adding 200 μl of 0.5 M sodium phosphate buffer, pH 7.0 into each well. Let stand at room temperature for 2-3 min.
(7) Place the Multiscreen filter plate onto a Millipore Manifold and turn on vacuum to allow buffer to flow through. Turn off vacuum. Transfer 80 μl of the reaction product into each well of the filter plate. Let stand for 2-3 min. Turn on vacuum to filter reaction product.
(8) Turn off vacuum. Add 200 μl of 0.5 M sodium phosphate buffer, pH 7.0 into each well to wash filter. Turn on vacuum.
Repeat step (8) three more times.
(9) Remove polypropylene bottom. Spot dry filter at the bottom with paper towel. Air dry filter plate on a bench for 1 hr. Add 40 μl Super Mix scintillant. Seal top of the plate with a tape. Place plate into a Packard carrier or MicroBeta carrier.
(10) Count plate using a Packard Topcount or MicroBeta counter. Program 10 for ^33P in Top count or ^33P program in micro-beta.
Percent inhibition is calculated after background subtraction as a percent reduction of activity relative to the positive control (average value of the plate excluding the negative controls).

T1 sequence (P26663 2420-2997, looked up, natural form): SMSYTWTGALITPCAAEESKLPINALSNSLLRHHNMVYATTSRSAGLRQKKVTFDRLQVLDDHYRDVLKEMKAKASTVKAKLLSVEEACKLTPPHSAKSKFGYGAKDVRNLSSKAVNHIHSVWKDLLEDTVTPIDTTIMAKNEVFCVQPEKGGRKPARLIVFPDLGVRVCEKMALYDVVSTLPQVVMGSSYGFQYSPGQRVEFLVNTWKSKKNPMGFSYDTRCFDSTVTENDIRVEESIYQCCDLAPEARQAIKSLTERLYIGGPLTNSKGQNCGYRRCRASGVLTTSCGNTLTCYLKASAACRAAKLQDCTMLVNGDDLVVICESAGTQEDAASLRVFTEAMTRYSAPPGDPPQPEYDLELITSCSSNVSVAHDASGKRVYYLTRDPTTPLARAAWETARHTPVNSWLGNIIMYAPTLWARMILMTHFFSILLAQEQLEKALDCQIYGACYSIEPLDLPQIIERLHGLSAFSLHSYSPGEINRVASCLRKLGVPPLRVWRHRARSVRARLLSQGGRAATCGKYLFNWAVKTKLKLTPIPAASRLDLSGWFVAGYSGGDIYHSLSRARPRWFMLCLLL

| Compound | IC50 [µM] |
| --- | --- |
| Cc1cc(N)c(S(=O)(=O)N2CCC[C@@H]2C(=O)O)cc1Cl [Example 17, 1-[(2-amino-5-chloro-4-methylphenyl)sulfonyl]-D-proline] | 4.7 |
| O=C(O)[C@@H]1C[C@@H](O)CN1S(=O)(=O)c1cc(F)cc(Cl)c1O [Example 18, (4R)-1-[(3-chloro-5-fluoro-2-hydroxyphenyl)sulfonyl]-4-hydroxy-L-proline] | 3.28 |
| O=C(O)[C@H]1CSCN1S(=O)(=O)c1cc(Cl)c(Cl)c(Cl)c1O [Example 46, (4S)-3-[(3,4,5-trichloro-2-hydroxyphenyl)sulfonyl]-1,3-thiazolidine-4-carboxylic acid] | 0.26 |
| O=C(O)[C@@H]1CSCN1S(=O)(=O)c1cc(Cl)cc(Br)c1O [Example 56, (4R)-3-[(3-bromo-5-chloro-2-hydroxyphenyl)sulfonyl]-1,3-thiazolidine-4-carboxylic acid] | 11.2 |
| Cc1cc(N)c(S(=O)(=O)N2C[C@H](O)C[C@H]2C(=O)O)cc1Cl [Example 25, (4R)1-[(2-amino-5-chloro-4-methylphenyl)sulfonyl]-4-hydroxy-L-proline] | 7.65 |
| Cc1cc(N)c(S(=O)(=O)N2CCCC[C@@H]2C(=O)O)cc1Cl [Example 44, (2R)-1-[(2-amino-5-chloro-4-methylphenyl)sulfonyl]piperidine-2-carboxylic acid] | 7.9 |
| Cc1cc(S(=O)(=O)N2CSC[C@@H]2C(=O)O)c(N)cc1Cl [Example 55, (4S)-3-[(2-amino-4-chloro-5-methylphenyl)sulfonyl]-1,3-thiazolidine-4-carboxylic acid] | 7.5 |
| O=S(=O)(c1cc(Cl)cc(Cl)c1O)N1CCSC1 [Example 52, 2,4-dichloro-6-(1,3-thiazolidin-3-ylsulfonyl)phenol] | 2.35 |
| Cc1cc(N)c(S(=O)(=O)N2C[C@@H](O)C[C@@H]2C(=O)O)cc1Cl [Example 19, (4S)-1-[(2-amino-5-chloro-4-methylphenyl)sulfonyl]-4-hydroxy-D-proline] | 4.05 |
| CCC(=O)[C@@H]1CCCN1S(=O)(=O)c1cc(Cl)cc(Cl)c1O [Example 29, 1-{(2S)-1-[(3,5-dichloro-2-hydroxyphenyl)sulfonyl]pyrrolidin-2-yl}propan-1-one] | 7.29 |
| O=C(O)[C@H]1CCCN1S(=O)(=O)c1cc(Br)cc(Cl)c1O [Example 22, 1-[(5-bromo-3-chloro-2-hydroxyphenyl)sulfonyl]-D-proline] | 4.81 |
| O=C(O)[C@H]1CCCN1S(=O)(=O)c1cc(Br)cc(Br)c1O [Example 27, 1-[(3,5-dibromo-2-hydroxyphenyl)sulfonyl]-D-proline] | 7 |
| O=C(O)[C@@H]1CSCN1S(=O)(=O)c1cc(Br)cc(Br)c1O [Example 48, (4R)-3-[(3,5-dibromo-2-hydroxyphenyl)sulfonyl]-1,3-thiazolidine-4-carboxylic acid] | 0.46 |
| N#C[C@@H]1CCCN1S(=O)(=O)c1cc(Cl)cc(Cl)c1O [Example 2, (2S)-1-[(3,5-dichloro-2-hydroxyphenyl)sulfonyl]pyrrolidine-2-carbonitrile] | 1.04 |
| O=C(O)[C@@H]1CCCN1S(=O)(=O)c1c(Cl)cc(Cl)cc1Cl [Example 32, 1-[(2,4,6-trichlorophenyl)sulfonyl]-L-proline] | 9.6 |
| O=C(O)[C@@H]1C[C@@H](O)CN1S(=O)(=O)c1cc(Cl)c(Cl)c(Cl)c1O [Example 3, (4R)-4-hydroxy-1-[(3,4,5-trichloro-2-hydroxyphenyl)sulfonyl]-L-proline] | 0.07 |
| O=C(O)[C@H]1CCCCN1S(=O)(=O)c1cc(Cl)cc(Cl)c1O [Example 42, (2R)-1-[(3,5-dichloro-2-hydroxyphenyl)sulfonyl]piperidine-2-carboxylic acid] | 2.01 |
| CO[C@@H]1C[C@@H](C(=O)O)N(S(=O)(=O)c2cc(Cl)cc(Cl)c2O)C1 [Example 12, (4R)-1-[(3,5-dichloro-2-hydroxyphenyl)sulfonyl]-4-methoxy-L-proline] | 0.91 |
